# Measured values: patent publication US20170266133A1 (priority 2014, published 2017)
# Assays:
# [1] = system: healthy recreational stimulant users; experiment: single-dose crossover abuse potential study in recreational stimulant users; format: in vivo, human
# Excerpt: A single-dose, randomized, double-blind, double-dummy, placebo- and active-controlled crossover study with 6 treatment visits per subject was undertaken. […] Subjects participated in a medical screening visit (Visit 1), one 4-day inpatient qualification phase (Visit 2), a treatment phase (Visits 3 to 8) consisting of six 5-day inpatient treatment visits, and a safety follow-up visit (Visit 9). Within 21 days of the screening visit, subjects were enrolled and attended a qualification phase in which they received either 60 mg methylphenidate or matching placebo in a randomized double-blind crossover manner. Dosing times were separated by approximately 24 hours to ensure that subjects could discriminate and show positive effects of the positive control.
# Healthy female and male subjects aged 18 to 55 years (inclusive), who were recreational central nervous system (CNS) stimulant users with cocaine experience and who had passed the methylphenidate qualification phase, were randomized into the treatment.
# Drug administration occurred on Day 1 of each treatment visit followed by pharmacodynamic (PD), pharmacokinetic (PK), and safety assessments conducted for up to 72 hours post-dose. […] Subjects were randomized to one of 6 treatment sequences according to a 6×6 William square design. The capsules received at each treatment visit (Visits 3 to 8) were identical. Serial pharmacodynamic and pharmacokinetic evaluations were taken at each treatment visit. pharmacokinetic analysis was performed for dasotraline. Safety monitoring included regular assessments of vital signs, clinical laboratory tests, and adverse events (AEs), as well as continuous telemetry monitoring for at least 12 hours post-dose. Treatment visits were separated by a washout interval of at least 21 days (from the day of dosing). Subjects returned for the safety follow-up visit within approximately 14 days following the end of the last treatment visit.
# [2] = cited from earlier work
# [3] = target: human DA transporters (DAT) (Homo sapiens, UniProt Q01959); experiment: dopamine uptake inhibition; format: biochemical
# Sequence of human DA transporters (DAT) (Q01959 whole entry): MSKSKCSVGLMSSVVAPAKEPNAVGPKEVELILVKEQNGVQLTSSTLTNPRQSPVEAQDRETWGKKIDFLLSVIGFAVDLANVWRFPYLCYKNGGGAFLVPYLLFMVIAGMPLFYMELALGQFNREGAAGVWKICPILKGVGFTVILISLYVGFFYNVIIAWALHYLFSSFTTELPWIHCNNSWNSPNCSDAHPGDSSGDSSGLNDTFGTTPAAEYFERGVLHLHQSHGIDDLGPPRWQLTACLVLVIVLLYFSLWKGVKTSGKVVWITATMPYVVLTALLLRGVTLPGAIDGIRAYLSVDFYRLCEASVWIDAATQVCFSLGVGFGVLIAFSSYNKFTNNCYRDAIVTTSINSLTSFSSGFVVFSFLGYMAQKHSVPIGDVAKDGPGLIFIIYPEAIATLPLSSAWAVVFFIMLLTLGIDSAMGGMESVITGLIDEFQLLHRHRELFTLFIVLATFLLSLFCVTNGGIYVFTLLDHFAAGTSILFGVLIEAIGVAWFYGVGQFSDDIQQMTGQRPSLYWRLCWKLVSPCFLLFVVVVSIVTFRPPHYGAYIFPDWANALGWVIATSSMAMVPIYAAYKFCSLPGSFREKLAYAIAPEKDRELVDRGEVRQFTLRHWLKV
# Excerpt: (§1) Dasotraline [(1R,4S)-4-(3,4-Dichlorophenyl)-1,2,3,4-tetrahydronaphthalen-1-amine] is a novel compound with DNRI pharmacology.
# NE transporters (NET) = NE transporters (NET) (Homo sapiens, UniProt P23975); experiment: norepinephrine uptake inhibition; format: biochemical
# Sequence of NE transporters (NET) (P23975 whole entry): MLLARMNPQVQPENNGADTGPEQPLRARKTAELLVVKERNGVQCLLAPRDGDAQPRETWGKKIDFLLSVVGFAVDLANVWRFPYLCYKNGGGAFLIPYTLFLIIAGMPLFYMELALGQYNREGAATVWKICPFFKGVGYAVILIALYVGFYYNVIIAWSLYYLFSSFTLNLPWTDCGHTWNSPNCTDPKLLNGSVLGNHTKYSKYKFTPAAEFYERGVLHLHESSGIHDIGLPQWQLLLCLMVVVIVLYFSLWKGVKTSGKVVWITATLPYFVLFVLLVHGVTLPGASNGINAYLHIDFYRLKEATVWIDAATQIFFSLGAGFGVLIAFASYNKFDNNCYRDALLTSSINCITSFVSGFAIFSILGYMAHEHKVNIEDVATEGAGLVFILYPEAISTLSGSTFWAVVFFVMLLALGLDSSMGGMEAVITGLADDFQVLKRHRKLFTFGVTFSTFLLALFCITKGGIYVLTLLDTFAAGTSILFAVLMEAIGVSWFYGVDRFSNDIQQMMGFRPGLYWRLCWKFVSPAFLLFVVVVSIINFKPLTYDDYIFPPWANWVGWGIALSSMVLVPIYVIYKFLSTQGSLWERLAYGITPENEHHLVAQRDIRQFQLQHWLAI
# Excerpt: as §1
# clinical [4] = format: in vivo, human
# Experimental: Upon oral administration, methylphenidate is rapidly and completely absorbed from the gastrointestinal tract. Peak concentrations occur 1 to 2 hours after dose administration. […] When methylphenidate and cocaine are administered intravenously, their pharmacokinetics are quite similar—the percentage of each drug taken up by the brain and their rates of uptake are parallel, although the clearance from the brain of cocaine is faster than that of methylphenidate. The receptor-binding affinities for cocaine and methylphenidate are similar at the dopamine transporter in the basal ganglia and the striatum. […] Thus it appears that abuse may be related to a rapid surge in dopamine levels in the striatum. […] The consequence of the slow increase in dopamine is the absence of a “high”, and the consequence of the long T1/2 is that, following daily dosing, serum concentration gradually increases to a steady state over the course of about 7 days.
# adults with ADHD [5] = experiment: Phase 2 study in adults with ADHD, efficacy (ADHD RS-IV, CGI-S, WRAADDS, cognition); format: in vivo, human
# Experimental: (§2) The study consisted of 3 periods including Screening, Treatment, and Washout/Follow-up, as described below. Efficacy was evaluated using the ADHD Rating Scale Version IV (ADHD RS-IV) with adult prompts. Effects on cognition were evaluated using the […]. Safety and tolerability were monitored throughout the study by collection of physical examinations, 12-lead electrocardiograms (ECG), vital signs, adverse events (AEs), hematology, blood chemistry, urinalysis, Insomnia Severity Index (ISI), and Columbia-Suicide Severity Rating Scale (C-SSRS).
# (§3) Subjects self-administered the study drug at home on Days 1 through 28, at approximately the same time each night. After Day 1 subjects returned to the clinic on Days 8, 15, 22, and 29. Beginning at Day 1 and at every visit during the treatment period, the ADHD RS-IV, Wender-Reimherr Adult Attention Deficit Disorder Scale (WRAADDS), and clinical global impression—severity (CGI-S) were completed. The clinical data repository system was administered at Baseline, and Days 15 and 29.
# (§4) At Days 36 and 43, subjects returned to the clinic and the ADHD RS-IV, WRAADDS, and CGI-S were completed. The clinical data repository system was completed on Day 43.
# adults with ADHD [6] = format: in vivo, human
# Experimental: as §2, §3, §4
# clinical [7] = format: in vivo, human; details: for steady-state concentration: predicted for longer-term administration from weeks 1-4
# Experimental: as §2, §3, §4
# From the measurements of serum concentration at 1, 2, 3, and 4 weeks, one can graph a predicted serum concentration on longer-term administration.
# DAT sites = target: T1, DAT sites (Homo sapiens, UniProt Q01959); experiment: DAT site occupancy versus serum concentration (other studies, not shown); details: in vivo
# T1 construct: from tissue; host or cells: in vivo occupancy
# T1 sequence (Q01959 whole entry): as the sequence (Q01959 whole entry) above
# [8] = system: norepinephrine transporters; experiment: circulating DHPG levels; format: in vivo, human; details: 8 mg/d
# clinical [9] = details: human, in vivo, 8 mg
# [10] = methylphenidate 40 mg and 80 mg, single dose
# [11] = 8 mg once daily, all assessment weeks
smiles,measurement,setting,value
COC(=O)C(c1ccccc1)C1CCCCN1 (stereo not shown) [methylphenidate],Drug Similarity Visual Analog Scale,[1]; [10],strongly identified as a stimulant
same,overall liking,[1]; [10],“liked” by subjects overall
same,"pharmacodynamic endpoints including Drug Liking Visual Analog Scale, versus placebo",[1]; [10],significant differences compared to placebo
same,secondary stimulant measures,[1]; [10],strong stimulant effects
same,pharmacokinetic half-life,[2]; in vivo,approximately 2 hours
same,time to peak concentrations,[2]; oral administration,1 to 2 h
"N[C@@H]1CC[C@@H](c2ccc(Cl)c(Cl)c2)c2ccccc21 [dasotraline, (1R,4S)-4-(3,4-Dichlorophenyl)-1,2,3,4-tetrahydronaphthalen-1-amine]",IC50,[3],3 nM
same,IC50,NE transporters (NET),4 nM
same,time to steady state serum concentration,clinical [4]; daily dosing,about 7 days
same,Tmax,"clinical [4]; human, in vivo, po",10 to 12 h
same,half-life,"clinical [4]; human, in vivo, read-out: serum half-life (t1/2)",47 to 77 h
same,"computerized cognitive assessment battery: attention, working memory, episodic memory",adults with ADHD [5]; 8 mg once daily,no significant main effects
same,Wender-Reimherr ADD total score,adults with ADHD [5]; 8 mg once daily vs placebo,did not improve enough to achieve statistical significance
same,"ADHD RS-IV total score, LS mean change from baseline versus placebo","adults with ADHD [5]; 8 mg once daily, Week 2",trend to separation from placebo
same,"Wender-Reimherr subscore, attention difficulties component and disorganization component","adults with ADHD [5]; 8 mg once daily, week 4, vs placebo",statistically significant improvement
same,"drug misuse or diversion, Abuse Potential Monitoring Plan",adults with ADHD [6]; 8 mg once daily,No evidence of drug misuse or diversion
same,Treatment-emergent adverse events (TEAEs),"adults with ADHD [6]; 8 mg once daily, 4 weeks",higher than the percentage of TEAEs in the placebo group
same,anxiety leading to discontinuation,"adults with ADHD [6]; 8 mg once daily, 4 weeks",1.8%
same,incidence of adverse events rated as severe,"adults with ADHD [6]; 8 mg once daily, 4 weeks",13.5%
same,insomnia leading to discontinuation,"adults with ADHD [6]; 8 mg once daily, 4 weeks",10.8%
same,panic attack leading to discontinuation,"adults with ADHD [6]; 8 mg once daily, 4 weeks",2.7%
same,"Drug Effects Questionnaire mean item scores, distance from the 0-point",adults with ADHD [6]; [11],≤ 5 mm
same,"Drug Effects Questionnaire, drug liking",adults with ADHD [6]; [11],No evidence of drug liking
same,withdrawal upon discontinuation of study drug,adults with ADHD [6]; after 4 weeks of 8 mg once daily,No signs or symptoms of withdrawal
same,steady-state concentration,clinical [7]; dose of 6 mg,about 12 ng/mL
same,steady-state concentration,clinical [7]; dose of 8 mg,about 17 ng/mL
same,concentration at 4 weeks,"clinical [7]; human, in vivo, 8 mg once daily, by week four, read-out: serum concentration plateau",15 to 20 ng/mL
same,serum concentration in the majority of patients,clinical [7]; oral dosage form containing 6-8 mg,10 to 18 ng/mL
same,serum concentration at 50% DAT site occupancy,DAT sites,5 to 6 ng/mL
same,circulating DHPG levels,[8],decreased circulating DHPG levels
same,differences from placebo on pharmacodynamic endpoints,[1]; 16 mg single dose,very few statistically significant differences from placebo
same,effects on most pharmacodynamic endpoints versus placebo,"[1]; dasotraline 8, 16 and 36 mg, single dose",not significantly different from those of placebo
same,Cmax,clinical [9],~3 ng/mL
same,Tmax,clinical [9],> 6 h
